What was measured:
BAG3 = BAG3 mRNA (PCR) and protein (immunofluorescence) levels in primary B-CLL cells; type: cell-based, human
Description: FIG. 1—Expression of BAG3 mRNA and protein in primary cells from leukemia patients. Leukemic cells were isolated from B-CLL patients' peripheral blood specimens by centrifugation through Ficoll-Hypaque (13) and cultured for 24 hours in RPMI 1640 medium supplemented with 10% fetal calf serum (10% FCS-RPMI), without or with fludarabine phosphate. A panel: cell mRNA was the extracted and BAG3 expression was verified by PCR (GAPDH expression is shown for comparative purpose); B panel: cells were permeabilised and analysed by indirect immunofluorescence with the polyclonal antibody AC-BAG3-1. A=control rabbit Ig; b=cells incubated with control medium and analysed with anti-BAG3; c=cells incubated with fludarabine and analysed with anti-BAG3.
FIG. 2—Downmodulation of BAG3 protein levels by anti-BAG3 antisense oligodeoxynucleotides. Leukemic cells were isolated from B-CLL patients' peripheral blood specimens by centrifugation through Ficoll-Hypaque and cultured for 20 hours without (b) or with BAG3 antisense (b+α) or control nonsense (b+ν) phosphorothioate oligodeoxynucleotides (5 microM) described in the text. Then cells were permeabilised and analysed by indirect immunofluorescence with the polyclonal antibody AC-BAG3-1. a=control rabbit Ig.

[1] = test system: cells of the human osteosarcoma line SAOS; test: Apoptosis in SAOS cells, cell permeabilization and PI staining; type: cell-based; conditions: 72 h; for % of apoptosis, incubation Etoposide (5 microM) / % of apoptosis, incubation Topotecan (40 ng/ml): without or with oligo 5 microM
Description: Cells of the SAOS line were incubated for 72 h in 10% FCS-RPMI without or with chemotherapeutic compounds (etoposide or topotecan) and/or the BAG3 antisense or control nonsense phosphorothioate oligodeoxynucleotides (5 microM) described in the text. Then cell apoptosis was analysed by cell permeabilization and PI staining according to ref.11.

BAG3 protein = biological target: T1, BAG3 protein (Homo sapiens, UniProt O95817); test: BAG3 protein in ALL cells, Western blot and intracellular immunofluorescence; type: cell-based; conditions: oligo 5 microM, 24 hr
T1 construct: endogenous in cells; host or cells: primary leukemic cells from patients' peripheral blood (B-CLL, acute leukemia)
T1 sequence (O95817 whole entry): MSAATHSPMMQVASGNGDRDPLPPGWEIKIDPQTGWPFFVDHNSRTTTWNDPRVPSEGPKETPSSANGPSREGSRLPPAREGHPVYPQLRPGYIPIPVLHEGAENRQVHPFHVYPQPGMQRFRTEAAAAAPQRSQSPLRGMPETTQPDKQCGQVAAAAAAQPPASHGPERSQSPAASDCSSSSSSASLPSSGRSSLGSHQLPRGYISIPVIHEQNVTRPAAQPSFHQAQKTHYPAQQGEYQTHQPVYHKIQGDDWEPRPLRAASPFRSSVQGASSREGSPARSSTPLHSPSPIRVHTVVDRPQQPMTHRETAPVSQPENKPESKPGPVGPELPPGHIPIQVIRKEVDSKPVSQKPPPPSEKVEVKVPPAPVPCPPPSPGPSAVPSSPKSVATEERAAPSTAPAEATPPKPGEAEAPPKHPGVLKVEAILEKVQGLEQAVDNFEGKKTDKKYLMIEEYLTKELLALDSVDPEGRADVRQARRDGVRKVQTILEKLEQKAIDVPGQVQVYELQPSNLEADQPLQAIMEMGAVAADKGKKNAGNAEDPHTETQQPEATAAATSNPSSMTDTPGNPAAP
Description: FIG. 11 Expression of BAG3 protein in ALL cells and its downmodulation by BAG3-specific antisense oligonucleotides. A—ALL cells (1×10^6/ml) were cultured in 10% FCS-RPMI without or with control nonsense ([…], SEQ ID NO 12, nonsense 1) or BAG3-specific antisense ([…], SEQ ID NO 9, antisense 1) oligonucleotides (5 microM) for 24 hr. Then cell lysates were obtained and analyzed in Western blot with anti-BAG3 (AC-BAG3-1; analogous results were obtained With AC-BAG3-2) or anti-tubulin antibodies. B—ALL cells (1×10^6/ml) were cultured in 10% FCS-RPMI without or with BAG3-specific antisense ([…], SEQ ID NO 9, antisense 1) (a) or control nonsense ([…], SEQ ID NO 12, nonsense 1) (b) oligonucleotides (5 microM) for 24 hr. Then the cells were analyzed by intracellular immunofluorescence with the anti-BAG3 polyclonal antibody. Negative controls with a control rabbit antibody preparation are shown on the left in a and b.

Row | Compound | % of apoptosis, incubation Etoposide (5 microM) [1] | % of apoptosis, incubation Topotecan (40 ng/ml) [1] | other results
1 | Nc1nc(F)nc2c1ncn2[C@@H]1O[C@H](COP(=O)(O)O)[C@@H](O)[C@@H]1O [fludarabine, fludarabine phosphate] | – | – | BAG3 mRNA levels (BAG3; 24 hours, PCR): enhanced; BAG3 protein levels (BAG3; immunofluorescence, 11 of 13 BAG3-positive specimens (18 examined)): upregulated
2 | COc1cc([C@@H]2c3cc4c(cc3[C@@H](O[C@@H]3O[C@@H]5CO[C@@H](C)O[C@H]5[C@H](O)[C@H]3O)[C@H]3COC(=O)[C@H]23)OCO4)cc(OC)c1O [Etoposide, etoposide] | 38.32% | – | –
3 | antisense 1: BAG3 antisense phosphorothioate oligodeoxynucleotide TGCATCATGGGCGAGTGGGTGGCGG (antisense TGCATCATGGGCGAGTGGGTGGCGG; DNA, all phosphorothioate, methylation of C not given here; listed as Homo sapiens) | – | – | BAG3 protein in ALL cells (BAG3 protein): downmodulation
4 | CC[C@@]1(O)C(=O)OCc2c1cc1n(c2=O)Cc2cc3c(CN(C)C)c(O)ccc3nc2-1 [Topotecan, topotecan] | – | 36.84% | –
5 | control nonsense: control nonsense phosphorothioate oligodeoxynucleotides described in the text; which of nonsense 1-3 is not stated (DNA TTATATTCTATTATATTTATGAACTCC; DNA, all phosphorothioate, methylation of C not given here; listed as Homo sapiens) | 45.40% | 41.60% | % of apoptosis, incubation control medium ([1]; oligo 5 microM, no chemotherapeutic compound): 25.84%
